In patent US20090292025A1, “Novel crystalline forms of armodafinil and preparation thereof” (Teva Pharmaceutical Industries Ltd., priority 2006, published 2009):

Key:
[1] = Prisinzano et al., Tetrahedron: Asymmetry (2004); cited from earlier work
[2] = Exposure to 100% relative humidity, followed by TGA and XRD; format: physicochemical
Method: Another embodiment of the invention encompasses armodafinil monohydrate. Armodafinil monohydrate may be prepared by a method comprising exposing armodafinil Form 1 to 100% relative humidity at a temperature of about 30° C. to about 60° C. for at least 7 days. Preferably, the heating is to a temperature of about 30° C. to about 40° C. In one example 200 mg of armodafinil Form I is heated at 30° C. in 100% relative humidity for 13 days.
X-Ray powder diffraction data were obtained by using methods known in the art. A SCINTAG powder X-ray diffractometer model X′TRA equipped with a solid-state detector was employed with copper radiation of 1.5418 Å and a round aluminum sample holder with zero background. The scanning parameters included: range: 2-40 degrees two-theta; scan mode: continuous scan; step size: 0.05 deg.; and a rate of 5 deg/min. All peak positions are within ±0.2 degrees two theta.
TGA analysis was performed using a Metler M3 thermo gravimeter. Samples of about 8 mg were analyzed in standard 150 μl alumina crucibles covered by lids with 1 hole. Each sample was scanned at a rate of 10° C./min from 25° C. to 200° C. A blank was subtracted from the sample. The oven was constantly purged with nitrogen gas at a flow rate of 40 ml/min.
Armodafinil Form A (200 mg) was exposed to 100% humidity for 7 days at 30° C. The XRD diffractogram of armodafinil Form I is illustrated in FIG. 3.

[3] = Stability of the crystal form under pressure of 2-10 tons (tablet compression); format: physicochemical
Method: Form A is stable by pressure of about 2-10 tons which is used in the compression stage during the tablet preparation.
A further method of preparing armodafinil Form I comprises submitting armodafinil Form IV to a pressure of about 2 tons to about 10 tons to obtain armodafinil Form I. Preferably, the pressure is applied for a period of about 1 minute to about 5 minutes. The time will depend upon the amount of armodafinil Form IV; for example, armodafinil 100 mg of Form IV is pressed with 10 tons for 1 minute.
Armodafinil Form IV (100 mg) was pressed with pressure of 2 tons or 10 tons for 1 min forming a pressed sample.

[4] = Grinding with mortar and pestle, XRD of the ground sample; format: physicochemical; settings: 100 mg ground with mortar and pestle for a few minutes
Method: Another method for preparing armodafinil Form I comprises grinding armodafinil Form IV. Preferably, the grinding is carried out over a period of about 1 minute to about 5 minutes, more preferably, about 1 min. Depending on the amount of armodafinil Form IV, different grinding methods may be used. For example, 200 mg of armodafinil Form IV is ground with a mortar and pestle for 1 minute.
Armodafinil Form IV (100 mg) was ground with mortar and pestle for a few minutes forming a ground sample.

[5] = Heating at 145° C., XRD of the heated sample; format: physicochemical; settings: 200 mg heated at 145° C. for 10 min
Method: Armodafinil Form I may also be prepared by drying armodafinil Form IV. Preferably, the process comprises heating armodafinil Form IV to a temperature of about 120° C. to 150° C. for at least about 10 minutes. Preferably, the heating is to a temperature of about 145° C. Preferably, the heating is conducted over a period of about 15 minutes about 30 minutes. For example, armodafinil Form IV 200 mg is heated for about 10 minutes. Form IV may be prepared according to WO 2004/060858.
Armodafinil Form IV (200 mg) was heated at 145° C. for 10 min forming a heated sample.

[6] = Form A exposed to 100% humidity for 7 days at 30° C.
[7] = Form A, Initial (before exposure)
[8] = Form I exposed to 100% Relative Humidity at 30° C. for 13 days
[9] = Form I exposed to 100% Relative Humidity at 60° C. for 13 days
[10] = Form I, Initial (Table 1, 30° C. study)
[11] = Form I, Initial (Table 2, 60° C. study)

## NC(=O)C[S@@+]([O-])C(c1ccccc1)c1ccccc1 (single isomer, unassigned) [S enantiomer]
[1]
  Elimination from the body compared with the R enantiomer: three times faster

## NC(=O)C[S@@+]([O-])C(c1ccccc1)c1ccccc1 [Armodafinil Form A, 2-[(R)-(diphenylmethyl)sulfinyl]acetamide]
[2]; [6]
  % Weight loss (by TGA): 3.5%
  Crystal form (by XRD): Form I
[2]; [7]
  % Weight loss (by TGA): 0.3%
  Crystal form (by XRD): Form A
[3]; pressure of about 2-10 tons, as used in the compression stage of tablet preparation
  Stability by pressure: stable

## NC(=O)C[S@@+]([O-])C(c1ccccc1)c1ccccc1 [Armodafinil Form IV, 2-[(R)-(diphenylmethyl)sulfinyl]acetamide]
[3]; 100 mg pressed with 2 tons or 10 tons for 1 min
  Crystal form (by XRD) of pressed sample: Form I
[4]
  Crystal form (by XRD) of ground sample: Form I
[5]
  Crystal form (by XRD) of heated sample: Form I

## NC(=O)C[S@@+]([O-])C(c1ccccc1)c1ccccc1 [armodafinil Form I, 2-[(R)-(diphenylmethyl)sulfinyl]acetamide]
[2]; [8]
  % Weight loss (by TGA): 5.6%
  Crystal form (by XRD): Form I
[2]; [9]
  % Weight loss (by TGA): 7.4%
  Crystal form (by XRD): Form I
[2]; [10]
  % Weight loss (by TGA): 0.1%
  Crystal form (by XRD): Form I
[2]; [11]
  % Weight loss (by TGA): 0.1%
  Crystal form (by XRD): Form I
